We go through 136 compounds from a melting point compilation (Tetko et al.).

The structures appear in SMILES notation.

The conditions of this data set: a range is the spread between reports.
`O=C(c1ccccc1)c1cccc(C(F)(F)F)c1` had a melting point of 52 to 52.5 °C.

In the case of `Cc1cccc(Cl)c1`, the melting point was -48 to -47.8 °C.

In turn, `CCCc1ccc(C(=O)O)cc1` displayed a melting point of 142 to 143 °C.

Take `CC1(C)OC(=O)CC(=O)O1`: the melting point was in the range of 94 to 98 °C.

For `c1ccc2nc(-c3ccc4ccccc4n3)ccc2c1`, the melting point was 194 to 195 °C.

Take `CC#N`: the melting point is -48 to -43.8 °C.

Consider `Nc1nccs1`, for which the melting point was 90 to 93 °C.

As for `C=C(C)C#N`, the melting point is -36 to -35.8 °C.

Consider `COC(=O)c1ccc(Cl)cc1`, for which the melting point is 43 to 44 °C.

`N#Cc1ccc(C#N)cc1` registered a melting point of 224 to 226 °C.

As to `O=C(O)c1ccc2c(c1)C(=O)OC2=O`, the melting point lay within 162 to 167 °C.

In turn, `Clc1cccs1` registered a melting point of -72 to -71.9 °C.

`O=C(Cc1ccccc1)Cc1ccccc1` displayed a melting point of 32 to 35 °C.

`Cc1ccc2sc(C)nc2c1`: the melting point was in the range of 38 to 40 °C.

Regarding `C=CCCC(=O)O`, the melting point was -22.5 to -22 °C.

The compound `O=C(O)C(Cl)=C(Cl)Cl` displayed a melting point of 73 to 76 °C.

As to `Nc1ncccn1`, the melting point fell in the range of 125 to 128 °C.

Turning to `CC1(C)C2CC[C@@]1(C)C(=O)C2`, the melting point was 178 to 180 °C.

`CCc1cc(C(C)(C)C)c(O)c(C(C)(C)C)c1`: the melting point fell in the range of 43 to 44 °C.

For `CC(C)(C)C1CCC(=O)CC1`, the melting point was 48.5 to 49 °C.

In turn, `C1CCCCCCCCCCC1` showed a melting point of 59 to 61 °C.

In turn, `OCC(F)(F)F` gave a melting point of -44 to -43.5 °C.

`Cc1ccc(C)s1` returned a melting point of -63 to -62.6 °C.

As to `CC1(C)C(=O)NC(=O)N1CO`, the melting point lay within 100 to 105 °C.

Compound `O=C(O)c1ccccc1[N+](=O)[O-]` returned a melting point of 146 to 148 °C.

Compound `Brc1cscc1Br` registered a melting point of 4.5 to 5 °C.

For `CC=C(C)C(C)C`, the melting point was -124 °C.

For `CC(C)CN`, the melting point was -87 to -85 °C.

Turning to `CCCCCCCBr`, the melting point was -58 to -56 °C.

Compound `CN(C)Cc1cc(C(C)(C)C)c(O)c(C(C)(C)C)c1` showed a melting point of 91 to 93.5 °C.

Compound `CC(=O)C(C)=O` showed a melting point of -3 to -1.2 °C.

Turning to `O=C(O)CCCl`, the melting point is 39 to 41 °C.

As for `CCOC(=O)CC(C)=O`, the melting point was -45 to -43 °C.

`CN(C)C(=O)Nc1ccc(Cl)c(Cl)c1`: the melting point was 158 to 159 °C.

In turn, `CC(C)=NO` came in with a melting point of 61 to 62 °C.

`O=Cc1ccc([N+](=O)[O-])cc1` registered a melting point of 105 to 108 °C.

Turning to `CC12CCC(=O)C=C1CCC1C2C(=O)CC2(C)C1CCC2(O)C(=O)CO` (stereo unspecified), the melting point lay within 222 to 226 °C.

`O=C(O)/C=C/c1ccccc1` came in with a melting point of 133 to 135 °C.

The compound `O=c1[nH]c(=O)n(C2CC(O)C(CO)O2)cc1F` (stereo unspecified) displayed a melting point of 150 °C.

As to `Oc1c(Cl)cccc1Cl`, the melting point is 65 to 68.5 °C.

Take `O=C(O)C(=Cc1ccccc1)c1ccccc1`: the melting point is 171 to 172 °C.

In turn, `Nc1ccc(F)c(Cl)c1` gave a melting point of 45.5 to 46 °C.

As for `CC(C)c1cccc(C(C)C)c1`, the melting point was -63.1 to -63 °C.

`COc1ccccc1OC(=O)Oc1ccccc1OC`: the melting point was in the range of 87 to 89 °C.

The compound `O=C(c1ccc(Br)cc1)c1ccc(Br)cc1` yielded a melting point of 174 to 177 °C.

In the case of `O=C(O)c1c(F)ccc(F)c1F`, the melting point lay in the range of 130 to 131 °C.

With `C1CNCCN1`, the melting point was in the range of 106 to 110 °C.

On to `CNc1ccc(Cl)cc1C(=O)c1ccccc1`, for which the melting point lay in the range of 94 to 96 °C.

`CC(=O)CC(=O)Nc1ccccc1` yielded a melting point of 85 to 86 °C.

In turn, `CC[Si](Cl)(Cl)CC` yielded a melting point of -97 to -96.5 °C.

`CCOP(=S)(OCC)Oc1nc(Cl)c(Cl)cc1Cl` showed a melting point of 41.5 to 42.5 °C.

`c1cnc2c(c1)ccc1cccnc12` gave a melting point of 117 to 118 °C.

Compound `CCOC(=O)CCCCC(=O)OCC` gave a melting point of -20 to -18 °C.

In turn, `CC12CCC3C(CCC4(C)CC5(CCC34C)OCCO5)C1CCC2=O` (stereo unspecified) displayed a melting point of 158 to 159 °C.

`COc1ccc(C2CC(=O)c3c(O)cc(O)cc3O2)cc1O` (stereo unspecified) displayed a melting point of 228 to 230 °C.

With `CCCCCCCCCCCCCCCCCCCCCC(=O)O`, the melting point lay within 76 to 81 °C.

Compound `O=C(O)CCOc1ccccc1` returned a melting point of 97.5 to 98 °C.

In turn, `CC(=O)CCC=C(C)C` had a melting point of -67.1 to -67 °C.

With `CCCCCCCCCCCCCCCCCC(=O)O`, the melting point fell in the range of 68 to 71 °C.

Turning to `C#CCCCC`, the melting point is -132 °C.

As to `COC(=O)C(Cl)(Cl)Cl`, the melting point was -18 to -17.5 °C.

The compound `BrCBr` returned a melting point of -53 to -52 °C.

For the compound `Oc1ccccc1Br`, the melting point is 5 to 5.6 °C.

Regarding `CCCCS`, the melting point was -116 °C.

On to `COc1ccc(C(=O)c2ccccc2)cc1`, for which the melting point was in the range of 61.5 to 62 °C.

Turning to `C=CCCCCC(=O)O`, the melting point is -6.5 to -6 °C.

In turn, `C#CC(C)C` showed a melting point of -90 to -89.7 °C.

With `NCCCCCCN`, the melting point was 39 to 41.5 °C.

`c1ccc(-c2cccc(-c3ccccn3)n2)nc1` gave a melting point of 90 to 91 °C.

Turning to `ClC1=C(Cl)[C@]2(Cl)[C@@H]3[C@@H]4C[C@@H]([C@H]5O[C@@H]45)[C@@H]3[C@@]1(Cl)C2(Cl)Cl`, the melting point lay in the range of 175 to 176 °C.

In turn, `Nc1ccc(C(=O)c2ccccc2)cc1` came in with a melting point of 122 to 123 °C.

Compound `CC(Cl)(Cl)Cl` gave a melting point of -33 to -30 °C.

In turn, `CC1=CC(=O)c2ccccc2C1=O` displayed a melting point of 102 to 107 °C.

Regarding `O=[N+]([O-])c1ccc(C=NO)cc1`, the melting point fell in the range of 128 to 130 °C.

Consider `Cc1ccc(S(=O)(=O)NC2CCCCC2)cc1`, for which the melting point fell in the range of 84.5 to 88 °C.

Regarding `CCCCCCCCCCCCCO`, the melting point was in the range of 32.5 to 34 °C.

`NC(=S)NS(=O)(=O)c1ccc(N)cc1` displayed a melting point of 179 to 182 °C.

For the compound `CC(CCC(=O)O)C1CCC2C3C(O)CC4CC(O)CCC4(C)C3CC(O)C12C` (stereo unspecified), the melting point was in the range of 198 to 201 °C.

As to `C=CCC1(C(C)C)C(=O)NC(=O)NC1=O`, the melting point lay within 141 to 143 °C.

Take `CC(=O)c1ccc(O)cc1`: the melting point fell in the range of 107 to 110 °C.

Compound `BrCc1ccc(CBr)cc1` showed a melting point of 142 to 144 °C.

`CCCCCCCCCCCC(=O)OC` yielded a melting point of 5 to 5.2 °C.

For `CCCCCCCCC(C)C`, the melting point was -49 to -48.9 °C.

On to `Clc1ccc(I)cc1`, for which the melting point was in the range of 54 to 57 °C.

Consider `OCc1ccccc1CO`, for which the melting point fell in the range of 62 to 64 °C.

As for `CC(=O)c1c[nH]c2ccccc12`, the melting point lay in the range of 189 to 194 °C.

Turning to `ON=C1CCCC1`, the melting point fell in the range of 56 to 57.8 °C.

With `CCCCC(=O)c1ccccc1`, the melting point is -9.4 to -9 °C.

`O=[N+]([O-])c1c(Cl)c(Cl)c(Cl)c(Cl)c1Cl` yielded a melting point of 142 to 144 °C.

The compound `CCC1(C)CC1` came in with a melting point of -130 °C.

Compound `CCCCC(C)C` registered a melting point of -118 °C.

Regarding `OC1c2ccccc2Oc2ccccc21`, the melting point was 123 to 128 °C.

Turning to `N#Cc1cccc(C(F)(F)F)c1`, the melting point was in the range of 14.5 to 16 °C.

As to `O=C(CCNNC(=O)c1ccncc1)NCc1ccccc1`, the melting point fell in the range of 151 to 152 °C.

Regarding `CCCCCCC=O`, the melting point was -43.3 to -43 °C.

In turn, `O=[N+]([O-])c1cc(S(=O)(=O)c2ccc(F)c([N+](=O)[O-])c2)ccc1F` registered a melting point of 194 °C.

Turning to `COP(=O)(NC(C)=O)SC` (stereo unspecified), the melting point lay within 88 to 89 °C.

As for `C=Cc1ccc(Br)cc1`, the melting point lay in the range of 5 to 7.7 °C.

Turning to `O=S(=O)(Cl)Cl`, the melting point was -54.1 to -54 °C.

For the compound `Cc1cccc(O)c1O`, the melting point was in the range of 65 to 68 °C.

On to `CCC(C)C`, for which the melting point is -160 °C.

The compound `C=Cn1c2ccccc2c2ccccc21` yielded a melting point of 63 to 65 °C.

`FC(F)(F)C(F)(F)F`: the melting point was -101 to -100 °C.

`CCc1cccc(CC)c1` registered a melting point of -84 to -83.9 °C.

The compound `Cc1ccccc1Br` returned a melting point of -28 to -27 °C.

Consider `COc1ccc(N)c([N+](=O)[O-])c1`, for which the melting point was in the range of 124 to 127 °C.

`CCCCBr` returned a melting point of -112 °C.

In the case of `O=C(Cl)c1cc(C(=O)Cl)cc(C(=O)Cl)c1`, the melting point lay within 36 to 36.3 °C.

The compound `O=c1c(O)c(-c2ccccc2)oc2ccccc12` registered a melting point of 170 to 172 °C.

In the case of `O=C(c1ccccc1)C(Cl)Cl`, the melting point lay within 20.5 to 21 °C.

Take `O=P(O)(Oc1ccccc1)Oc1ccccc1`: the melting point was 66 to 67.5 °C.

Compound `CCNc1nc(NC(C)(C)C)nc(SC)n1` yielded a melting point of 104 to 105 °C.

`CC(=O)c1ccc(C)s1` showed a melting point of 26 to 27.5 °C.

`Cc1c(C)c(C)c(C)c(C)c1C` came in with a melting point of 164 to 168 °C.

`COC(=O)c1cc(OC)c(OC)c(OC)c1`: the melting point is 83 to 85 °C.

Compound `Clc1ccc2cc[nH]c2c1` showed a melting point of 89 to 90 °C.

For the compound `COC(=O)c1cccc([N+](=O)[O-])c1`, the melting point lay within 78 to 80 °C.

`c1ccc2c(c1)OCCOCCOc1ccccc1OCCOCCO2` showed a melting point of 162 to 163 °C.

In turn, `C#CCC(C)C` came in with a melting point of -105 °C.

In the case of `CCCCCCCCCCCCOC(=O)c1cc(O)c(O)c(O)c1`, the melting point fell in the range of 96.5 to 97 °C.

For the compound `N#CCc1cccc(CC#N)c1`, the melting point was 33 to 34 °C.

`O=C(C=Cc1ccccc1)c1ccc(Cl)cc1` returned a melting point of 96 to 99 °C.

The compound `CN1CCC(O)CC1` had a melting point of 28 to 29 °C.

Consider `CC(=O)Nc1ccccc1O`, for which the melting point lay within 205 to 208 °C.

`O=C(O)CCCCC(=O)O` had a melting point of 152 to 153 °C.

The compound `CCCCCC1CCCCC1` had a melting point of -58 to -57.5 °C.

In turn, `O=C(O)c1c(F)cc(F)cc1F` yielded a melting point of 141 to 143 °C.

Take `Nc1c(Cl)cc([N+](=O)[O-])cc1Cl`: the melting point was in the range of 189 to 191 °C.

Consider `CC(C)c1cc(C(C)C)c(C(C)C)cc1C(C)C`, for which the melting point lay within 118 to 119 °C.

As for `CCN1CCNC(=O)C1=O`, the melting point was in the range of 108 to 110 °C.

`C=CC(C)C`: the melting point is -168 °C.

For the compound `C1=CCCCC1`, the melting point was -104 °C.

`NC(=O)c1c(F)c(F)c(F)c(F)c1F` returned a melting point of 147 to 148 °C.

The compound `CCCCCCS` yielded a melting point of -81 to -80 °C.

In turn, `CCCCCCCCCCc1ccc(N)cc1` gave a melting point of 24 to 25 °C.

In turn, `COc1cc(CNC(=O)CCCCC=CC(C)C)ccc1O` gave a melting point of 65 to 66 °C.

The melting point is the temperature, or range, at which the solid turns liquid.
